Test results published in the supplement of paper PMC10307832.

How the values were obtained:
Experiment in all cases: relative viability (nuclei count vs DMSO), 5 days (fraction); higher = more cells survive
[1] = compound: C1=CC(=CC=C1NC(=S)NNC2=C(C=C(C=C2[N+](=O)[O-])C(F)(F)F)[N+](=O)[O-])F [Kobe2602] + Cc1nc(NC(=O)N2CCC[C@H]2C(N)=O)sc1-c1ccnc(C(C)(C)C(F)(F)F)c1 [Alpelisib] (partner 2 µM)
Summary of the method: (§1)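 Relative viability equals treated-well nuclei counts divided by vehicle-well nuclei counts. Counts came from 4× images of lung cancer cell lines grown in 1536-well plates for 5 days after pin-tool dosing on the day after seeding. Dosing used one drug alone or a fixed anchor-drug dose plus five library-drug doses (not always all listed) in √10 steps, and values are medians of duplicate plates.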

[2] = compound: COc1cc2nccc(Oc3ccc(NC(=O)C4(C(=O)Nc5ccc(F)cc5)CC4)cc3)c2cc1OC [Cabozantinib] + CC(=O)Nc1cccc(-n2c(=O)n(C3CC3)c(=O)c3c(Nc4ccc(I)cc4F)n(C)c(=O)c(C)c32)c1 [Trametinib] (partner 0.02 µM)
Summary of the method: as §1

[3] = compound: COc1cc2nccc(Oc3ccc(NC(=O)C4(C(=O)Nc5ccc(F)cc5)CC4)cc3)c2cc1OC [Cabozantinib] + O=C(CCCCCCC(=O)Nc1ccccc1)NO [Vorinostat] (partner 1 µM)
Summary of the method: as §1

[4] = compound: O[C@@H](COc1cccc2ncccc12)CN1CCN([C@@H]2c3ccccc3[C@@H]3[C@H](c4ccccc42)C3(F)F)CC1 [Zosuquidar] + Cc1nc(Nc2ncc(C(=O)Nc3c(C)cccc3Cl)s2)cc(N2CCN(CCO)CC2)n1 [Dasatinib] (partner 0.075 µM)
Summary of the method: as §1

Cell Line	relative viability ([1]; first compound 0.2 µM)	relative viability ([1]; first compound 0.6325 µM)	relative viability ([1]; first compound 2 µM)	relative viability ([1]; first compound 6.325 µM)	relative viability ([1]; first compound 20 µM)	relative viability ([2]; first compound 0.02 µM)	relative viability ([2]; first compound 0.06325 µM)	relative viability ([2]; first compound 0.2 µM)	relative viability ([2]; first compound 0.6325 µM)	relative viability ([2]; first compound 2 µM)	relative viability ([3]; first compound 0.02 µM)	relative viability ([3]; first compound 0.06325 µM)	relative viability ([3]; first compound 0.2 µM)	relative viability ([3]; first compound 0.6325 µM)	relative viability ([3]; first compound 2 µM)	relative viability ([4]; first compound 0.01 µM)	relative viability ([4]; first compound 0.03162 µM)	relative viability ([4]; first compound 0.1 µM)	relative viability ([4]; first compound 0.3162 µM)	relative viability ([4]; first compound 1 µM)
NCI-H3122	0.807	0.753	0.764	0.784	0.885	0.192	0.241	0.238	0.238	0.281	0.992	1	1.07	1.11	1.02	0.666	0.653	0.787	0.863	0.914
201T	1.09	1.01	0.968	1.11	1.09	0.71	0.731	0.686	0.729	0.727	0.77	1.03	0.962	0.932	0.969	0.611	0.551	0.526	0.632	0.581
SK-LU-1	1.03	1.37	0.968	0.948	0.977	0.475	0.58	0.623	0.4	0.451	0.719	1.04	0.755	0.797	0.72	0.191	0.145	0.194	0.211	0.189
NCI-H1734	0.71	0.816	0.665	0.726	0.784	0.738	0.665	0.716	0.623	0.597	0.703	1.01	0.847	0.886	0.792	0.41	0.408	0.455	0.571	0.531
NCI-H1651	0.964	0.932	0.792	0.809	0.965	0.915	0.86	0.845	0.774	0.82	0.511	0.709	0.533	0.571	0.622	0.357	0.324	0.463	0.356	0.381
PC-3 [JPC-3]	1.05	1.04	0.971	1.03	1.02	0.696	0.755	–	0.736	0.739	0.694	1.1	–	0.816	1.02	1	1.02	0.941	0.927	0.964
NCI-H1915	1.1	1.09	1.02	1.06	1.05	0.331	0.345	0.335	0.304	0.28	0.525	0.548	0.511	0.522	0.473	0.311	0.305	0.308	0.337	0.283
COR-L23	0.752	0.827	0.809	0.885	0.83	0.666	0.679	0.679	0.623	0.576	0.367	0.692	0.431	0.407	0.417	0.459	0.474	0.474	0.581	0.485
HOP-62	1.05	0.846	0.934	0.809	1.25	0.413	0.389	0.4	0.376	0.349	0.661	0.764	0.669	0.603	0.555	0.702	0.528	0.594	0.679	0.633
NCI-H1975	0.641	0.648	0.559	0.564	0.524	0.331	0.389	0.638	0.417	0.217	0.754	0.833	0.773	0.728	0.651	0.335	0.313	0.433	0.374	0.352
BEN	1.07	1.12	0.947	0.883	1.03	0.979	1.08	0.998	0.982	0.77	0.562	0.567	0.565	0.554	0.518	0.31	0.281	0.299	0.314	0.258
EMC-BAC-2	0.745	0.827	0.733	0.817	0.738	0.912	0.949	0.823	0.854	0.934	0.279	0.678	0.608	0.456	0.422	0.325	0.34	0.373	0.339	0.325
NCI-H441	0.725	0.864	0.682	0.704	0.727	0.339	0.502	0.421	0.441	0.361	0.782	0.922	0.882	0.794	0.845	0.521	0.606	0.574	0.683	0.718
NCI-H727	0.625	0.518	0.614	0.571	0.728	0.42	0.409	0.443	0.395	0.386	0.935	1.36	1.23	1.28	1.22	0.373	0.387	0.424	0.429	0.355
LU99A	0.515	0.525	0.415	0.542	0.607	0.475	0.56	0.535	0.573	0.41	0.413	0.524	0.574	0.456	0.647	0.458	0.577	0.505	0.552	0.569
NCI-H2405	0.748	0.94	0.721	0.896	0.831	0.658	0.666	0.615	0.59	0.473	0.846	1.25	1.01	0.986	1.07	0.208	0.174	0.208	0.228	0.215
